The text below walks through data of patent US20240285664A1, “LINE-1 INHIBITORS AS COGNITIVE ENHANCERS” (TRANSPOSON THERAPEUTICS, INC., priority 2021, published 2024).

Entries after “also recorded” stand apart in the source; their conditions may differ.

The first assay has as its system human LINE-1. The experiment in a line: Human LINE-1 retrotransposition assay (HeLa cell-based dual-luciferase reporter). Particulars: HeLa cells, reporter plasmid pYX017, 72 h incubation, Firefly/Renilla luciferase; read-out: Human LINE-1 IC50 (μM), Human L1 activity inhibition. On the procedure: Islatravir and other compounds were tested for inhibition of retrotransposition activity of human LINE-1 in HeLa cells according to the following procedure.
HeLa cervical cancer cells were cultivated at 37° C. in a humidified 5% CO2 incubator in Dulbecco's Modified Eagle's Medium (DMEM)—high glucose, with 4500 mg/L glucose, L-glutamine, sodium pyruvate and sodium bicarbonate (Sigma), supplemented with 10% of heat inactivated fetal bovine serum (Thermo Fisher).
Assays were performed using reporter plasmid pYX017 as described (Xie, et al., 2011) with several modifications. The reporter assay was performed in 96-well white optical bottom plates. HeLa cells were seeded in wells 24 h prior to transfection and compound treatment so that cells were approximately 30% confluent on the day of transfection. Different cell plating densities were tested and a density of 2×10^3 cells was determined to be optimal.
Compounds were resuspended in DMSO. Serial dilutions (1:3) were prepared in DMSO. Medium containing different concentrations of the compounds were prepared by adding 2 μl of the compound dilution to 1 ml of the culture medium. The final concentration of DMSO in the medium was 0.2%.
FuGENE® HD transfection reagent (Promega, E2311, Lot 382574 and Lot 397842) was used to transfect the plasmids into the cells. The transfection reagent: DNA mixture was prepared in OpiMEM (Thermo Fisher) according to manufacturer's instructions. Different ratios of transfection reagent to DNA were tested and a ratio of 3:1 was determined to be optimal. Culture medium was removed from the cells and discarded. The transfection reagent: DNA mixture (5 μl) was mixed with the compound containing medium (100 μl/well) and this was added onto the cells of each well. Cells were incubated at 37° C./5% C02 for different incubation time. A 72 h incubation time was determined to be optimal.
Luciferase reporter activity was quantified with the Dual-Luciferase® Reporter Assay System (Promega) according to manufacturer's instructions for multiwell plates except that cells were lysed directly on the multiwell plate with 30 μl of the passive lysis buffer (PLB) for 20 min at room temperature, with gentle shaking to ensure complete cell lysis.
Firefly and Renilla luciferase signals were measured using a SpectraMax i3x Multi-Mode Microplate Reader. Integration times of 100 ms and 10 ms were used to measure the Firefly and Renilla signals respectively. Relative L1 activity is calculated as Firefly/Renilla*1000 or Firefly/Renilla*10,000. Dose response inhibition data were fit to a four parameter logistic equation using non-linear regression (using Graphpad Prism 8), to determine IC50 values for each inhibitor.
A word on the IC50: it is the concentration that inhibits the measured activity by half. In the case of `C[C@H](Cn1cnc2c(N)ncnc21)OCP(=O)(O)O` [Tenofovir], the IC50 was 2.77 µM.

The same assay, now with this note: HeLa cells, summary of Table 1.
Turning to `C#C[C@@]1(CO)C=C[C@H](n2cc(C)c(=O)[nH]c2=O)O1` [Censavudine, 4′-ethynylstavudine], the “human LINE-1 inhibitor activity compared to the other reverse transcriptase inhibitors tested (in words)” value is reported as “unexpectedly better human LINE-1 inhibitor activity; also recorded: surprisingly potent”.

On to `C#C[C@]1(CO)O[C@@H](n2cnc3c(N)nc(F)nc32)C[C@@H]1O` [Islatravir, 2′-deoxy-4′-ethynyl-2-fluoroadenosine], for which the “human LINE-1 inhibitor activity compared to the other reverse transcriptase inhibitors tested (in words)” value was “unexpectedly better human LINE-1 inhibitor activity”.

Still in this assay, the particulars now being: HeLa cells, summary of Table 1; listed as islatravir.
In the case of `C#C[C@]1(CO)O[C@@H](n2cnc3c(N)nc(F)nc32)C[C@@H]1O` [Islatravir, 2′-deoxy-4′-ethynyl-2-fluoroadenosine], the “human LINE-1 inhibitor activity compared to the other reverse transcriptase inhibitors tested (in words)” value was “surprisingly potent”.

Still in this assay, the particulars now being: Homo sapiens; HeLa cells, reporter plasmid pYX017, 72 h incubation, Firefly/Renilla luciferase; read-out: Human LINE-1 IC50 (μM), Human L1 activity inhibition.
For the compound `O=C(NCc1c(F)cc(F)cc1F)c1cn2c(c(O)c1=O)C(=O)N1[C@H]3CC[C@H](C3)O[C@@H]1C2` [Bictegravir], the IC50 was > 12.4 µM.

As to `C#C[C@@]1(CO)C=C[C@H](n2cc(C)c(=O)[nH]c2=O)O1` [Censavudine, 4′-ethynylstavudine], the IC50 came to 0.07 µM. Turning to `C#C[C@]1(CO)O[C@@H](n2cc(C)c(O)nc2=O)C[C@@H]1O` [Cpd. No. 2], the IC50 came out at 0.393 µM. Take `C#C[C@]1(CO)O[C@@H](n2cc(Br)c(O)nc2=O)C[C@@H]1O` [Cpd. No. 4]: the IC50 was 0.489 µM. Still for that read-out and setting: the figure for `C#C[C@]1(CO)O[C@@H](n2ccc(N)nc2=O)C[C@@H]1O` [Cpd. No. 7, 4-amino-1-((2R,4S,5R)-5-ethynyl-4-hydroxy-5 (hydroxymethyl)tetrahydrofuran-2-yl)pyrimidin-2(1H)-one] is 0.0091 µM.

In the case of `C#C[C@]1(CO)O[C@@H](n2cc(F)c(N)nc2=O)C[C@@H]1O` [Cpd. No. 9], the IC50 was found to be 0.0209 µM. Still for that read-out and setting: the figure for `C#C[C@]1(CO)O[C@@H](n2cnc3c(O)nc(N)nc32)C[C@@H]1O` [Cpd. No. 13] is 0.00051 µM; for `C=C[C@]1(CO)O[C@@H](n2cnc3c(N)nc(F)nc32)C[C@@H]1O` [Cpd. No. 20] it is 0.011 µM. The same measure, in the same setting: the figure for `C#C[C@]1(CO)O[C@@H](n2cnc3c(N)ncnc32)C[C@@H]1O` [Cpd. No. 23] is > 50 µM; for `C=C[C@]1(CO)O[C@@H](n2ccc(N)nc2=O)C[C@@H]1O` [Cpd. No. 24] it is 0.008 µM. Still for that read-out and setting: with `CC[C@]1(CO)O[C@@H](n2cc(C)c(=O)[nH]c2=O)C[C@@H]1O` [Cpd. No. 26] the figure was 2 µM; with `CC[C@]1(CO)O[C@@H](n2cnc3c(O)nc(N)nc32)C[C@@H]1O` [Cpd. No. 27], 0.003 µM; with `C[C@@H]1CCO[C@H]2Cn3cc(C(=O)NCc4ccc(F)cc4F)c(=O)c(O)c3C(=O)N12` [Dolutegravir sodium], > 9.38 µM.

As to `O=C1Nc2ccc(Cl)cc2[C@@](C#CC2CC2)(C(F)(F)F)O1` [Efavirenz], the IC50 was > 0.25 µM.

For `Nc1nc(=O)n([C@@H]2C=C[C@H](CO)O2)cc1F` [Elvucitabine], the IC50 was determined as 0.09 µM. Same read-out and setting: the figure for `Nc1ccn([C@@H]2CS[C@H](CO)O2)c(=O)n1` [Lamivudine] is 0.64 µM; for `Cc1ccnc2c1NC(=O)c1cccnc1N2C1CC1` [Nevirapine] it is > 50 µM; for `Cc1nnc(C(=O)NC(C)(C)c2nc(C(=O)NCc3ccc(F)cc3)c(O)c(=O)n2C)o1` [Raltegravir potassium] it is > 9.86 µM. On the same count and under the same terms, the figure for `Cc1cc(/C=C/C#N)cc(C)c1Nc1ccnc(Nc2ccc(C#N)cc2)n1` [Rilpivirine] is > 15.1 µM; for `Cc1cn([C@H]2C=C[C@@H](CO)O2)c(=O)[nH]c1=O` [Stavudine] it is 0.75 µM.

Take `CC(C)OC(=O)OCOP(=O)(CO[C@H](C)Cn1cnc2c(N)ncnc21)OCOC(=O)OC(C)C` [Tenofovir disoproxil]: the IC50 was determined as 0.2 µM. For `Cc1cn([C@H]2C[C@H](N=[N+]=[N-])[C@@H](CO)O2)c(=O)[nH]c1=O` [Zidovudine], the IC50 was 0.81 µM.
